Measured values as given in patent publication US20080118529A1 (priority 2005, published 2008).

Key:
U937 monocytes = format: cell-based, human; conditions: 1 h
factor XII [1] = target: T1, factor XII (Homo sapiens, UniProt P00748); format: biochemical
tPA = format: biochemical, human
factor XII [2] = target: T1, factor XII; format: biochemical; remark: listed apart in the source
OVA = test system: OVA; design: species or system chicken; conditions: in vivo
nOVA = test system: nOVA; design: species or system Balb/c mice; conditions: mouse, in vivo
Sequence of nOVA (P01012 whole entry): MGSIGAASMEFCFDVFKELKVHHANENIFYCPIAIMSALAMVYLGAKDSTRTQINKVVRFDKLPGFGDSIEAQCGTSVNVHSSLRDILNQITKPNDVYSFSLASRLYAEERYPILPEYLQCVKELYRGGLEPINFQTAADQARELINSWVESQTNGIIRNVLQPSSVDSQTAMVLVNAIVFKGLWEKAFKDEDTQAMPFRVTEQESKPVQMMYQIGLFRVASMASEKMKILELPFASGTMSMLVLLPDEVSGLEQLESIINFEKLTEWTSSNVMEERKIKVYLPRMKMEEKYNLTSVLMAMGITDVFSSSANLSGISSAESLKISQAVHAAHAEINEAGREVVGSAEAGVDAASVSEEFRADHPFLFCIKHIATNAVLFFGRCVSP

DOVA = test system: DOVA; design: species or system chicken; conditions: in vivo

T1 sequence (P00748 20-615): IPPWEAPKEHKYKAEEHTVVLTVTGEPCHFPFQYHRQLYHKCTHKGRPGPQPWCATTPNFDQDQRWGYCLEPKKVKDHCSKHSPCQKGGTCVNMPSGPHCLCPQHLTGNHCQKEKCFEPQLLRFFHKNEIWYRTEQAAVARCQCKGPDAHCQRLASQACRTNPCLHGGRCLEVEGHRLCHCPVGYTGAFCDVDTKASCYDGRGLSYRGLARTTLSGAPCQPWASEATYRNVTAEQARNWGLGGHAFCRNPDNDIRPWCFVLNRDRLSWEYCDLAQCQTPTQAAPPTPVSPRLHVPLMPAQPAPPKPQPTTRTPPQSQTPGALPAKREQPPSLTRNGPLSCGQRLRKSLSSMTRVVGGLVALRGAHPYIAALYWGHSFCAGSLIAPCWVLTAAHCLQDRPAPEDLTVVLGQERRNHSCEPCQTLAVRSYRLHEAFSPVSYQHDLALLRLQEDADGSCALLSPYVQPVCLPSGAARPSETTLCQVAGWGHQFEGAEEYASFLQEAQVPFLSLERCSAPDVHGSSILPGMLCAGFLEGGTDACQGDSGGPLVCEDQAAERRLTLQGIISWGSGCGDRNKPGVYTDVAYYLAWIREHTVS

Compound: control Hb: control haemoglobin, not glycated
- TNFα RNA expression relative to endostatin and Hb-AGE (U937 monocytes; 260 μg/ml): approximately threefold lower
- TNFα RNA upregulation relative to values after amyloid endostatin or glycated Hb stimulation (U937 monocytes; 260 μg/ml): ≤ 30%

Compound: Cc1ccc2c(c1)sc(-c1ccc(N(C)C)cc1)[n+]2C.[Cl-] [ThT, Thioflavin T]
- inhibition of factor XII activation by DXS500k and 80× diluted plasma (factor XII [1]): fully inhibited
- inhibition of the stimulatory activity of FP13 K157G on factor XII autoactivation (factor XII [1]): effectively inhibits

Compound: Etanercept [Native Etanercept]
- tPA/plasminogen activating potential of protein/antigen preparation (tPA): some tPA activation

Compound: CCCCCCCCCCCCCCCCCC[N+](C)(C)CCCCCCCCCCCCCCCCCC.[Br-] [DDA, dimethyl dioctadecyl ammonium bromide]
- activation of tPA by adjuvants (tPA): activators of tPA

Compound: glucagon [native glucagon]
- tPA/plasminogen activating potential of protein/antigen preparation (tPA): some tPA activating potential

Compound: Endostatin
- TNFα RNA expression compared to LPS (U937 monocytes; 100 μg/ml amyloid endostatin, 260 μg/ml Hb-AGE, 1 μg/ml LPS, normalized to 18S): approximately 30%

Compound: dextran-sulphate [DXS500k]
- activation of tPA by adjuvants (tPA): activators of tPA
- factor XII activation by DXS500k (factor XII [1]): only a stimulatory factor for factor XII activation when 80× diluted plasma is present
- activation of factor XII in the presence of prekallikrein and high molecular weight kininogen (factor XII [2]): only then effectively activated

Compound: ovalbumin [nOVA]
- anti-OVA titer (OVA): can not elicit
- anti-nOVA titer after one week (nOVA): no titer was detected
- titer of anti-nOVA antibodies (nOVA): 610
- anti-DOVA titer (DOVA): can not elicit
